Here are results for 17 compounds from patent publication US8106055B2, “Substituted amide compounds” (Gruenenthal GmbH, priority 2007, dated 2012).

Assay [1] has as its target T1, human bradykinin 1 receptor (B1R) (Homo sapiens, UniProt P46663).
T1 construct: expressed in transfected cells; host or cells: CHO K1 cells
T1 sequence (P46663 1-353): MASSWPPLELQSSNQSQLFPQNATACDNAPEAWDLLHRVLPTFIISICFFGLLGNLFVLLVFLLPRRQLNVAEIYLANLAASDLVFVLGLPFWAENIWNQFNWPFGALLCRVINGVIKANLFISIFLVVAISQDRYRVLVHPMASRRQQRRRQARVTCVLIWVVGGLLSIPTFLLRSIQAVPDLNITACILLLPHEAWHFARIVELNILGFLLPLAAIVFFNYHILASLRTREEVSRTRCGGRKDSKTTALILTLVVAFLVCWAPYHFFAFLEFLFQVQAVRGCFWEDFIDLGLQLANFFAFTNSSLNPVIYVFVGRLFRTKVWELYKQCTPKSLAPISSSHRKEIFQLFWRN
Briefly: Functional investigation on the human bradykinin 1 receptor (B1R), Ca2+ FLIPR assay in CHO K1 hB1R cells. The class given is cell-based. Conditions: test substance 10 μM, Ca2+ FLIPR, CHO K1 hB1R cells; for inhibition at 10 µM: CHO-K1, B1R antagonism human, read-out: B1R Ant. h [10 μM] % Inhibition. A digest of the protocol:
(§1)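 Fluo-4 Ca2+ readout, peak fluorescence. Stable CHO K1 transfectants; compound pre-incubated 10-20 min, then EC80 agonist—Lys-Des-Arg9-BK for hB1R, Des-Arg9-BK for rB1R. % inhibition vs maximal inhibition; IC50 from multiple concentrations, duplicate/triplicate, ≥2 independent runs.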

Assay [2] has as its target T2, bradykinin 1 receptor (B1R) of the rat (Rattus norvegicus, UniProt P97583).
T2 construct: expressed in transfected cells; host or cells: CHO K1 cells
T2 sequence (P97583 1-337): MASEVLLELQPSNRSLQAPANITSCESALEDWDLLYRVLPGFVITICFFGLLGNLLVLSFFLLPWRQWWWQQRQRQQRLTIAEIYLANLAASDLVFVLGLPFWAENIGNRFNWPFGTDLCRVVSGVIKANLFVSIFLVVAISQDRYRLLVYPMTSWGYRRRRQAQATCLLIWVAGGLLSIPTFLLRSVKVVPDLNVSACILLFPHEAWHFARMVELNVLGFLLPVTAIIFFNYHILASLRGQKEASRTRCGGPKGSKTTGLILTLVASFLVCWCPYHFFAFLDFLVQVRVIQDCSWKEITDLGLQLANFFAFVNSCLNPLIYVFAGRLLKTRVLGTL
Briefly: Functional investigation on the rat bradykinin 1 receptor (B1R), Ca2+ FLIPR assay in CHO K1 rB1R cells. It counts as cell-based. Conditions: test substance 10 μM, Ca2+ FLIPR, CHO K1 rB1R cells; for inhibition at 10 µM: CHO-K1, B1R antagonism rat, read-out: B1R Ant. r [10 μM] % Inhibition. An outline of the steps:
as §1

A further assay has as its target T3, human μ opiate receptor (Homo sapiens, UniProt P35372).
T3 construct: purchased PerkinElmer Life Sciences, Zaventem, Belgium RB-HOM; host or cells: CHO-K1 cells (membrane preparation)
Briefly: Affinity for the human μ opiate receptor ([3H]-naloxone displacement, CHO-K1 receptor membrane preparation, SPA). It counts as binding. Conditions: Table 3, to be read in the same way as Table 1, test concentration 1 μM; for inhibition at 1 µM: 1.5 h, read-out: μ. A digest of the protocol:
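Displacement of 1 nmol/l [3H]-naloxone measured by SPA counting after 90 min at room temperature, using human μ receptor CHO-K1 membrane preparation in Tris-HCl buffer with 0.06% BSA. Test substances at 1 μmol/l give % inhibition; dilution series yield IC50, then Ki (Cheng-Prusoff); non-specific binding with 100 μmol/l naloxone.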

T3 sequence (P35372 whole entry): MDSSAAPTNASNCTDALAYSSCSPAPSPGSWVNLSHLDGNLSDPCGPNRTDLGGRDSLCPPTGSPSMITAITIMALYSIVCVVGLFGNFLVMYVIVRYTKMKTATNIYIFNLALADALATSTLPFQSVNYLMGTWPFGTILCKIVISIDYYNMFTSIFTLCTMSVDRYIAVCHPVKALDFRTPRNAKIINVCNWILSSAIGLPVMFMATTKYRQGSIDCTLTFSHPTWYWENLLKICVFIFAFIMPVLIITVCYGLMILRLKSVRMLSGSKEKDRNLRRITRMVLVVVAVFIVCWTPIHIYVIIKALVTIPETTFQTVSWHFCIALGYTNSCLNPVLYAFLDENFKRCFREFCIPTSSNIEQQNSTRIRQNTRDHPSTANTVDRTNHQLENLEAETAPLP

On to `COc1cc(C)c(S(=O)(=O)N(C)CCOCC(=O)NC2CCC(C(CCc3ccccc3)N3CCCCC3)CC2)c(C)c1` (stereo not drawn) [Example 663, 2-(2-(4-methoxy-N,2,6-trimethylphenylsulfonamido)ethoxy)-N-(4-(3-phenyl-1-(piperidin-1-yl)propyl)cyclohexyl)acetamide], for which the results for the inhibition at 10 µM in assay [1] and in assay [2] were 103% and 95%, respectively. Also, at human μ opiate receptor, the inhibition at 1 µM amounted to 26%.
The matching figures for `CN(CCOCC(=O)NC1CCC(C(CCc2ccccc2)N2CCOCC2)CC1)S(=O)(=O)c1c(Cl)cccc1Cl` (stereo not drawn) [Example 664, 2-(2-(2,6-dichloro-N-methylphenylsulfonamido)ethoxy)-N-(4-(1-morpholino-3-phenylpropyl)cyclohexyl)acetamide]: 70%, 11% and 5%.
Consider `CN(CCOCC(=O)NC1CCC(C(CCc2ccccc2)N2CCCCC2)CC1)S(=O)(=O)c1c(Cl)cccc1Cl` (stereo not drawn) [Example 665, 2-(2-(2,6-dichloro-N-methylphenylsulfonamido)ethoxy)-N-(4-(3-phenyl-1-(piperidin-1-yl)propyl)cyclohexyl)acetamide], for which the inhibition at 10 µM came out at 94% in assay [1] and 28% in assay [2]. For the same compound, the inhibition at 1 µM on human μ opiate receptor was found to be 18%.
`O=C(COC1CCN(S(=O)(=O)c2c(Cl)cc(Cl)cc2Cl)C1)NC1CCC(C(CCc2ccccc2)N2CCOCC2)CC1` (stereo not drawn) [Example 666, N-(4-(1-morpholino-3-phenylpropyl)cyclohexyl)-2-(1-(2,4,6-trichlorophenylsulfonyl)pyrrolidin-3-yloxy)acetamide]: the inhibition at 10 µM was 11% in assay [1] and 5% in assay [2]. In addition, at human μ opiate receptor, the inhibition at 1 µM amounted to 6%.
On to `O=C(COC1CCN(S(=O)(=O)c2c(Cl)cc(Cl)cc2Cl)C1)NC1CCC(C(CCc2ccccc2)N2CCCCC2)CC1` (stereo not drawn) [Example 667, N-(4-(3-phenyl-1-(piperidin-1-yl)propyl)cyclohexyl)-2-(1-(2,4,6-trichlorophenylsulfonyl)pyrrolidin-3-yloxy)acetamide], for which the inhibition at 10 µM in assay [1] is 57%; in assay [2], 17%. On human μ opiate receptor, the inhibition at 1 µM was 32%.
For the compound `COc1cc(C)c(S(=O)(=O)N2CCC(OCC(=O)NC3CCC(C(CCc4ccccc4)N4CCOCC4)CC3)C2)c(C)c1` (stereo not drawn) [Example 668, 2-(1-(4-methoxy-2,6-dimethylphenylsulfonyl)pyrrolidin-3-yloxy)-N-(4-(1-morpholino-3-phenylpropyl)cyclohexyl)acetamide], the inhibition at 10 µM was found to be 88% in assay [1] and 64% in assay [2]. Moreover, at human μ opiate receptor, the inhibition at 1 µM was found to be 10%.
Regarding `COc1cc(C)c(S(=O)(=O)N2CCC(OCC(=O)NC3CCC(C(CCc4ccccc4)N4CCCCC4)CC3)C2)c(C)c1` (stereo not drawn) [Example 669, 2-(1-(4-methoxy-2,6-dimethylphenylsulfonyl)pyrrolidin-3-yloxy)-N-(4-(3-phenyl-1-(piperidin-1-yl)propyl)cyclohexyl)acetamide], the inhibition at 10 µM was 103% in assay [1] and 95% in assay [2]. The inhibition at 1 µM on human μ opiate receptor turned out to be 20%.
For `CN(CCOCC(=O)NC1CCC(C(CCc2ccccc2)N2CCOCC2)CC1)S(=O)(=O)c1c(Cl)cc(C(F)(F)F)cc1Cl` (stereo not drawn) [Example 670, 2-(2-(2,6-dichloro-N-methyl-4-(trifluoromethyl)phenylsulfonamido)ethoxy)-N-(4-(1-morpholino-3-phenylpropyl)cyclohexyl)acetamide], the inhibition at 10 µM is 12% in assay [1] and 58% in assay [2]. Also, the inhibition at 1 µM on human μ opiate receptor was determined as 7%.
Turning to `CN(CCOCC(=O)NC1CCC(C(CCc2ccccc2)N2CCCCC2)CC1)S(=O)(=O)c1c(Cl)cc(C(F)(F)F)cc1Cl` (stereo not drawn) [Example 671, 2-(2-(2,6-dichloro-N-methyl-4-(trifluoromethyl)phenylsulfonamido)ethoxy)-N-(4-(3-phenyl-1-(piperidin-1-yl)propyl)cyclohexyl)acetamide], the figures for the inhibition at 10 µM in assay [1] and in assay [2] were 43% and 4%, respectively. For the same compound, the inhibition at 1 µM at human μ opiate receptor was 9%.
In the case of `O=C(COC1CCCN(S(=O)(=O)c2c(Cl)cc(Cl)cc2Cl)C1)NC1CCC(C(CCc2ccccc2)N2CCOCC2)CC1` (stereo not drawn) [Example 672, N-(4-(1-morpholin-3-phenylpropyl)cyclohexyl)-2-(1-(2,4,6-trichlorophenylsulfonyl)piperidin-3-yloxy)acetamide], the “B1R Ant. h [10 μM] % Inhibition” value in assay [1] (B1R antagonism human) is 18%. In assay [2] (B1R antagonism rat), the “B1R Ant. r [10 μM] % Inhibition” value was found to be 11%. This compound also came in with a μ at human μ opiate receptor of 16 % inhibition.
On to `O=C(COC1CCCN(S(=O)(=O)c2c(Cl)cc(Cl)cc2Cl)C1)NC1CCC(C(CCc2ccccc2)N2CCCCC2)CC1` (stereo not drawn) [Example 673, N-(4-(3-phenyl-1-(piperidin-1-yl)propyl)cyclohexyl)-2-(1-(2,4,6-trichlorophenylsulfonyl)piperidin-3-yloxy)acetamide], for which the inhibition at 10 µM in assay [1] was 57%; in assay [2] it was 20%. Besides, on human μ opiate receptor, the inhibition at 1 µM came out at 71%.
For `COc1cc(C)c(S(=O)(=O)N2CCCC(OCC(=O)NC3CCC(C(CCc4ccccc4)N4CCOCC4)CC3)C2)c(C)c1` (stereo not drawn) [Example 674, 2-(1-(4-methoxy-2,6-dimethylphenylsulfonyl)piperidin-3-yloxy)-N-(4-(1-morpholino-3-phenylpropyl)cyclohexyl)acetamide], the values for the inhibition at 10 µM in assay [1] and in assay [2] were 61% and 45%, respectively. Also, the inhibition at 1 µM on human μ opiate receptor came to 7%.
The matching figures for `COc1cc(C)c(S(=O)(=O)N2CCCC(OCC(=O)NC3CCC(C(CCc4ccccc4)N4CCCCC4)CC3)C2)c(C)c1` (stereo not drawn) [Example 675, 2-(1-(4-methoxy-2,6-dimethylphenylsulfonyl)piperidin-3-yloxy)-N-(4-(3-phenyl-1-(piperidin-1-yl)propyl)cyclohexyl)acetamide]: 97%, 89% and 37%.
Take `COc1cc(C)c(S(=O)(=O)N2CCCC2COCC(=O)NC2CCC(C(CCc3ccccc3)N3CCOCC3)CC2)c(C)c1` (stereo not drawn) [Example 676, 2-((1-(4-methoxy-2,6-dimethylphenylsulfonyl)pyrrolidin-2-yl)methoxy)-N-(4-(1-morpholino-3-phenylpropyl)cyclohexyl)acetamide]: the results for the inhibition at 10 µM in assay [1] and in assay [2] were 93% and 106%, respectively. Moreover, the inhibition at 1 µM at human μ opiate receptor turned out to be 10%.
For `COc1cc(C)c(S(=O)(=O)N2CCCC2COCC(=O)NC2CCC(C(CCc3ccccc3)N3CCCCC3)CC2)c(C)c1` (stereo not drawn) [Example 677, 2-((1-(4-methoxy-2,6-dimethylphenylsulfonyl)pyrrolidin-2-yl)methoxy)-N-(4-(3-phenyl-1-(piperidin-1-yl)propyl)cyclohexyl)acetamide], the inhibition at 10 µM was 104% in assay [1] and 107% in assay [2]. In addition, the inhibition at 1 µM on human μ opiate receptor was found to be 60%.
In the case of `COc1cc(C)c(S(=O)(=O)N2CCCC(COCC(=O)NC3CCC(C(CCc4ccccc4)N4CCOCC4)CC3)C2)c(C)c1` (stereo not drawn) [Example 678, 2-((1-(4-methoxy-2,6-dimethylphenylsulfonyl)piperidin-3-yl)methoxy)-N-(4-(1-morpholino-3-phenylpropyl)cyclohexyl)acetamide], the inhibition at 10 µM came out at 45% in assay [1] and 73% in assay [2]. Moreover, at human μ opiate receptor, the inhibition at 1 µM stood at 6%.
Take `O=C(COCC1CCCN(S(=O)(=O)c2c(Cl)cc(Cl)cc2Cl)C1)NC1CCC(C(CCc2ccccc2)N2CCCCC2)CC1` (stereo not drawn) [Example 679, N-(4-(3-phenyl-1-(piperidin-1-yl)propyl)cyclohexyl)-2-((1-(2,4,6-trichlorophenylsulfonyl)piperidin-3-yl)methoxy)acetamide]: the inhibition at 10 µM in assay [1] amounted to 39%; in assay [2], 34%. Besides, the inhibition at 1 µM on human μ opiate receptor was 51%.
